{"source": "patent US9428732B2", "about": "“Compositions and methods for differentiating pluripotent stem cells into primitive blood cells and uses thereof” (Primorigen Biosciences, Inc., priority 2011, dated 2016)", "tested_on": "pluripotent stem cell differentiation cultures", "assay": "Beating cardiomyocyte colonies in differentiation cultures", "type": "cell-based, human", "settings": "cultures using DEAB; data not shown", "text": "Within the mesoderm lineage we then quantified the expression of markers of the paraxial (FOXC1) and lateral plate (FOXF1, hematopoietic and cardiac precursor) mesoderm. […] This is likely the result of anterior lateral plate mesoderm formation (precursors of the heart). We saw a dramatic upregulation of the cardiogenic mesoderm marker NKX2.5 in the DMSO control at this time point (FIG. 6G, Day 12 onward)."}
{"smiles": "CCN(CC)c1ccc(C=O)cc1", "note": "[DEAB, 4-diethylaminobenzaldehyde]", "values": [{"measurement": "numbers of beating cardiomyocytes colonies", "result": "significantly reduced numbers"}]}
